Activity data for 1 molecule are collected here from ChEMBL document CHEMBL3868594, “From lead optimization to NDA approval for a new antimicrobial: Use of pre-clinical effect models and pharmacokinetic/pharmacodynamic mathematical modeling” (2016).

Common to all, as to type: functional
Assay [1] deals with Mycobacterium tuberculosis. As to the kind of experiment: Antibacterial activity against linezolid-resistant Mycobacterium tuberculosis H37Rv in hollow-fiber infection model assessed as reduction in bacterial burden at 600 mg, po at 24 hrs dose regimen measured after 3 weeks.
The test system of assay [2] is Mycobacterium tuberculosis. As to the kind of experiment: Antibacterial activity against linezolid-resistant Mycobacterium tuberculosis H37Rv in hollow-fiber infection model assessed as reduction in bacterial burden at 858 mg, po at 24 hrs dose regimen measured after 3 weeks.
The test system of assay [3] is Mycobacterium tuberculosis. As to the kind of experiment: Antibacterial activity against linezolid-resistant Mycobacterium tuberculosis H37Rv in hollow-fiber infection model assessed as reduction in bacterial burden at 1116 mg, po at 24 hrs dose regimen measured after 3 weeks.
In assay [4] the test system is Mycobacterium tuberculosis. As to the kind of experiment: Antibacterial activity against linezolid-resistant Mycobacterium tuberculosis H37Rv in hollow-fiber infection model assessed as reduction in bacterial burden at 342 mg, po at 24 hrs dose regimen measured after 3 weeks.

SMILES strings stand for the structures.

For the molecule `CC(=O)NC[C@H]1CN(c2ccc(N3CCOCC3)c(F)c2)C(=O)O1` [LINEZOLID], the Activity worked out at 1.7 log10CFU/ml in assay [1], 3 log10CFU/ml in assay [2], 3 log10CFU/ml in assay [3] and 0.5 log10CFU/ml in assay [4].
